Measured values: ChEMBL document CHEMBL5523742 (J Med Chem, 2024)
Values belong to the compound of their own block, whether it stands above or below them. Active and inactive are the calls of the source. No cut-off for these calls is given here. Numbered stars: 1 amine (or outer) side, 2 acyl side, 3 side chain; on linkers, the order of the positions; unused ones are H or OH. Square brackets hold non-standard residues; d marks the D form. Side chains are listed from the residue outwards. Peptide text beside a SMILES is read from it. * marks the point of attachment. ξ: configuration not given here. C20 diacid = O=C(O)CCCCCCCCCCCCCCCCCCC(=O)*; γGlu = O=C(O)[C@H](CCC(=O)[*:2])N[*:1]; ξγGlu = O=C(O)C(CCC(=O)[*:2])N[*:1]; AEEA = NCCOCCOCC(=O)O; Aib = CC(C)(N)C(=O)O

Tests used:
Secretin receptor = Secretin receptor (Homo sapiens, UniProt P47872); assay: Agonist activity human SCTR stably expressed in CHO-K1 cells assessed as […] in cAMP accumulation incubated for 30 mins by TR-FRET assay; format: functional, cell-based
[1] = Chemical stability of compound at pH 8 assessed as compound degradation; format: physicochemical; conditions: buffer; for degraded: read-out: Drug degradation
[2] = Toxicity in sc dosed C57BL/6JRj mouse model assessed as reduction in body weight administered once daily for 28 days; format: organism-based; conditions: in vivo, 672 h, dose 3-30 nmol/kg, time 28 day
[3] = Chemical stability of compound at pH 7 assessed as compound degradation; format: physicochemical; conditions: buffer
[4] = Drug concentration in sc dosed C57BL/6JRj mouse plasma administered once daily for 28 days and measured after 24 hrs by LC-MS/MS analysis; format: ADME, organism-based; conditions: in vivo, 696 h, dose 3-30 nmol/kg, time 29 day
Mus musculus [5] = assay: Protection against diet-induced obesity in sc dosed C57BL/6JRj mouse model assessed as reduction in food intake administered once daily for 28 days and measured after 2 to 3 days; format: functional, organism-based; conditions: dose 3-30 nmol/kg, time 28-31 day
Homo sapiens = species: Homo sapiens; assay: Selectivity index, ratio of EC50 for agonist activity human SCTR stably expressed in CHO-K1 cells assessed as […] in cAMP accumulation to EC50 for agonist activity human GLP-1R stably expressed in CHO-K1 cells assessed as […] in cAMP accumulation; format: cell-based
Mus musculus [6] = assay: Protection against diet-induced obesity in C57BL/6JRj mouse model assessed as reduction in whole-body adipose tissue mass at 3 to 30 nmol/kg administered once daily for 28 days; format: functional, organism-based; conditions: dose 3-30 nmol/kg, time 28.0 day
[7] = target: T1, Gastric inhibitory polypeptide receptor (Homo sapiens) (UniProt P48546); assay: Activation of GIPR (unknown origin) upto 3000 nM
T1 sequence (whole entry): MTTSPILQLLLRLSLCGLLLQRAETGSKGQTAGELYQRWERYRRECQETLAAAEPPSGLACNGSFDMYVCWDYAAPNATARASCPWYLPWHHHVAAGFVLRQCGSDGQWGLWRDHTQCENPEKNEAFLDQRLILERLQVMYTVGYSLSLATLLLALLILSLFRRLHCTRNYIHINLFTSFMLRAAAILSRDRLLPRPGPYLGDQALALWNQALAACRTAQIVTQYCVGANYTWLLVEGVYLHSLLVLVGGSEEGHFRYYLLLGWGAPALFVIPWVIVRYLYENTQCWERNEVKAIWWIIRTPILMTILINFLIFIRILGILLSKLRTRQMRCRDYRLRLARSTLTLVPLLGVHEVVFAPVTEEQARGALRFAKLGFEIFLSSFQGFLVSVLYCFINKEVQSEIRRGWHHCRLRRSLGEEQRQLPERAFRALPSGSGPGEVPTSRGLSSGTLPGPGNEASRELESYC

[8] = target: Glucagon receptor (Homo sapiens) (UniProt P47871); assay: Activation of GCGR (unknown origin) upto 3000 nM
[9] = target: T2, Glucagon-like peptide 2 receptor (Homo sapiens) (UniProt O95838); assay: Activation of GLP-2R (unknown origin) upto 3000 nM
T2 sequence (whole entry): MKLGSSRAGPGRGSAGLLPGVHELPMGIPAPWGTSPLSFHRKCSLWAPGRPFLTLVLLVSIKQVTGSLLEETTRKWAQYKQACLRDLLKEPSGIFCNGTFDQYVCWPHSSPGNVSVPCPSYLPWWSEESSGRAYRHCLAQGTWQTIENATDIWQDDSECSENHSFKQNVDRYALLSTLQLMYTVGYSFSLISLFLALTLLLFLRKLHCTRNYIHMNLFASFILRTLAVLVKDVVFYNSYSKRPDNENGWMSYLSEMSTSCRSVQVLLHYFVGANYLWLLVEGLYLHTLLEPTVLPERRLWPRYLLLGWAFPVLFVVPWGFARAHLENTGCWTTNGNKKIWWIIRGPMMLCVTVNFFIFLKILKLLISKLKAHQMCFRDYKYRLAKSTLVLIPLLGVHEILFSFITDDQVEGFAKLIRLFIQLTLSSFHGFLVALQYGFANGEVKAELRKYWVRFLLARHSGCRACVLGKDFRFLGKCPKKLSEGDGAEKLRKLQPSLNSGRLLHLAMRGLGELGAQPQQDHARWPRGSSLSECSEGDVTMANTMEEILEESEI

[10] = target: Glucagon-like peptide 1 receptor (Homo sapiens, UniProt P43220); assay: Agonist activity human GLP-1R stably expressed in CHO-K1 cells assessed as […] in cAMP accumulation incubated for 30 mins by TR-FRET assay; format: functional, cell-based
Glucagon-like peptide 1 receptor, sequence (P43220 whole entry): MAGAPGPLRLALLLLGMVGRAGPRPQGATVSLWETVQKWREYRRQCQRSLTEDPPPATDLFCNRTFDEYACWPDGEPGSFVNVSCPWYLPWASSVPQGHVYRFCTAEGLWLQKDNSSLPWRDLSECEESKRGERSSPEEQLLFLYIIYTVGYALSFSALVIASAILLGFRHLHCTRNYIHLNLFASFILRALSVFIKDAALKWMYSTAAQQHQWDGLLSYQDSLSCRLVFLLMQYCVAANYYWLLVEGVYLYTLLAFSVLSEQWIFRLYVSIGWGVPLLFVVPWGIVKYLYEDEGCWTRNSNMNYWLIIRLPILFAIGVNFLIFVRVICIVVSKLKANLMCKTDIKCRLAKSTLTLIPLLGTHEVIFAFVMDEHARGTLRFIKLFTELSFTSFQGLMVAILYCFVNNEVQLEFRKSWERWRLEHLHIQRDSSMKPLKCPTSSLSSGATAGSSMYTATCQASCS

Secretin receptor, sequence (P47872 whole entry): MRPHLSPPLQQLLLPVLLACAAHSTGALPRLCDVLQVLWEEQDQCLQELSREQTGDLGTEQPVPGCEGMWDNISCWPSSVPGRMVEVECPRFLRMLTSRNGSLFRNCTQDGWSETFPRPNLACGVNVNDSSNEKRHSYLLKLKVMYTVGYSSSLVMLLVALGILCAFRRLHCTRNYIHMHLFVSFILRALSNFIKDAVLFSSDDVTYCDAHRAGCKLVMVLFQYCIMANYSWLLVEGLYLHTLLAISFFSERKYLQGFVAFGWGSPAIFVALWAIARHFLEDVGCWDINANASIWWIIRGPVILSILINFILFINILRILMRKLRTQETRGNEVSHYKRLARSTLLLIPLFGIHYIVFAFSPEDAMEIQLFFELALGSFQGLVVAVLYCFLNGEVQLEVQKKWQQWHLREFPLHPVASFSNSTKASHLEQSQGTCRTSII
Glucagon receptor (Homo sapiens), sequence (P47871 whole entry): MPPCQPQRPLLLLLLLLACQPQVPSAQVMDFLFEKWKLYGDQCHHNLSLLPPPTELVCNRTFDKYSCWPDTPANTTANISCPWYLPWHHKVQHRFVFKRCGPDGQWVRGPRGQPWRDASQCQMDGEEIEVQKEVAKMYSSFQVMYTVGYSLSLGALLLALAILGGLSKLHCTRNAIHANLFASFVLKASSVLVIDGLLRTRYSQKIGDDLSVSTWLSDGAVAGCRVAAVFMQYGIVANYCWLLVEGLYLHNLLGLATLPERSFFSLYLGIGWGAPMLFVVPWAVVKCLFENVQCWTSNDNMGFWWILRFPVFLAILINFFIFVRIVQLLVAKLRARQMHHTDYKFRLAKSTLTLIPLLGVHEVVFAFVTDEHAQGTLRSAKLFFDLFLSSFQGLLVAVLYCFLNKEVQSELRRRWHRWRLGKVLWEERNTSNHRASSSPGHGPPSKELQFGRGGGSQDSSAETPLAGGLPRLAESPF

degraded ([3]; read-out: Drug degradation): 1.4%
degraded [1]: 0.55%
Cp [4]: Dose-Dependent Effect
Compound: CC(C)C[C@H](NC(=O)[C@H](Cc1ccccc1)NC(=O)[C@H](CCCNC(=N)N)NC(=O)[C@H](CCC(N)=O)NC(=O)[C@H](CC(C)C)NC(=O)C(C)(C)NC(=O)[C@H](C)NC(=O)[C@H](CCC(=O)O)NC(=O)[C@H](CCC(=O)O)NC(=O)[C@H](CCCCNC(=O)COCCOCCNC(=O)COCCOCCNC(=O)CC[C@H](NC(=O)CCCCCCCCCCCCCCCCCCC(=O)O)C(=O)O)NC(=O)[C@H](CC(C)C)NC(=O)[C@H](Cc1ccc(O)cc1)NC(=O)[C@H](CO)NC(=O)[C@@H](NC(=O)[C@H](CC(=O)O)NC(=O)[C@H](CO)NC(=O)[C@@H](NC(=O)[C@H](Cc1ccccc1)NC(=O)[C@@H](NC(=O)CNC(=O)[C@H](CCC(=O)O)NC(=O)C(C)(C)NC(=O)[C@@H](N)Cc1c[nH]cn1)[C@@H](C)O)[C@@H](C)O)C(C)C)C(=O)N[C@@H](CCC(=O)O)C(=O)N[C@@H](Cc1c[nH]cn1)C(=O)N[C@@H](CC(C)C)C(=O)N[C@H](C(N)=O)C(C)C (H-H[Aib]EGTFTSDVSYLK([AEEA-AEEA-γGlu-C20 diacid])EEA[Aib]LQRFLEHLV-NH2)
Activity [2]: Dose-Dependent Effect

Activity [7]: inactive
Activity [8]: inactive
Activity [9]: inactive
Compound: CC(C)C[C@H](NC(=O)[C@H](Cc1ccccc1)NC(=O)[C@H](CCCNC(=N)N)NC(=O)[C@H](CCC(N)=O)NC(=O)[C@H](CC(C)C)NC(=O)C(C)(C)NC(=O)[C@H](C)NC(=O)[C@H](CCC(=O)O)NC(=O)[C@H](CCC(=O)O)NC(=O)[C@H](CCCCNC(=O)COCCOCCNC(=O)COCCOCCNC(=O)CCC(NC(=O)CCCCCCCCCCCCCCCCCCC(=O)O)C(=O)O)NC(=O)[C@H](CC(C)C)NC(=O)[C@H](Cc1ccc(O)cc1)NC(=O)[C@H](CO)NC(=O)[C@@H](NC(=O)[C@H](CC(=O)O)NC(=O)[C@H](CO)NC(=O)[C@@H](NC(=O)[C@H](Cc1ccccc1)NC(=O)[C@@H](NC(=O)CNC(=O)[C@H](CCC(=O)O)NC(=O)C(C)(C)NC(=O)[C@@H](N)Cc1c[nH]cn1)[C@@H](C)O)[C@@H](C)O)C(C)C)C(=O)N[C@@H](CCC(=O)O)C(=O)N[C@@H](Cc1c[nH]cn1)C(=O)N[C@@H](CC(C)C)C(=O)N[C@H](C(N)=O)C(C)C (some centres not stated) (H-H[Aib]EGTFTSDVSYLK([AEEA-AEEA-ξγGlu-C20 diacid])EEA[Aib]LQRFLEHLV-NH2)
Activity (Mus musculus [5]): Dose-Dependent Effect
Ratio EC50 (Homo sapiens): 10600
Activity (Mus musculus [6]): Active

EC50 (Secretin receptor; cho-k1): 0.002 nM
Drug degradation [3]: 8.6%
Drug degradation [1]: 9%
EC50 [10]: 2300 nM
Compound: SECRETIN [listing 1 of 2 here]

The remaining lines, values behind:

Compound: CC[C@H](C)[C@H](NC(=O)[C@H](Cc1ccccc1)NC(=O)[C@H](CCC(=O)O)NC(=O)[C@H](CCCCN)NC(=O)[C@H](C)NC(=O)[C@H](C)NC(=O)[C@H](CCC(N)=O)NC(=O)CNC(=O)[C@H](CCC(=O)O)NC(=O)[C@H](CC(C)C)NC(=O)[C@H](Cc1ccc(O)cc1)NC(=O)[C@H](CO)NC(=O)[C@H](CO)NC(=O)[C@@H](NC(=O)[C@H](CC(=O)O)NC(=O)[C@H](CO)NC(=O)[C@@H](NC(=O)[C@H](Cc1ccccc1)NC(=O)[C@@H](NC(=O)CNC(=O)[C@H](CCC(=O)O)NC(=O)[C@H](C)NC(=O)[C@@H](N)Cc1c[nH]cn1)[C@H](C)O)[C@@H](C)O)C(C)C)C(=O)N[C@@H](C)C(=O)N[C@@H](Cc1c[nH]c2ccccc12)C(=O)N[C@@H](CC(C)C)C(=O)N[C@H](C(=O)N[C@@H](CCCCN)C(=O)NCC(=O)N[C@@H](CCCNC(=N)N)C(=O)O)C(C)C
EC50 (Secretin receptor): 800 nM
degraded [1]: 8.1%

Compound: SECRETIN [listing 2 of 2 here]
Ratio EC50 (Homo sapiens): 1 10^-6No_unit
